# Test results taken from publication PMC5501099 (Malaria Journal, 2017).
# What was measured:
# Plasmodium vivax = assay: Effect of ivermectin on Plasmodium vivax sporogony in Anopheles minimus; assay type: in vivo; settings: An. minimus
# Protocol: Mosquitoes reared in Bangkok were transported to a field laboratory at the Mae Sot Malaria Medical Clinic in Mae Sot, Tak Province. Plasmodium vivax-infected blood was collected from malaria-infected patients reporting to malaria clinics operated by the Thailand Ministry of Public Health in Tak Province (protocol WRAIR#1949A). Patient plasma was removed and replaced by centrifuging blood samples at 3000 rpm for 5 min, plasma removed and blood washed with RPMI twice, and malaria-naïve AB+ serum was added at a 50:50 ratio [30]. One millilitre of blood was fed to each group of 100 mosquitoes in 0.5-l cardboard containers and unfed mosquitoes were removed. Mosquitoes were maintained on 10% sucrose ad libitum at the Mae Sot field insectary (25 ± 1 °C and 70 ± 10% relative humidity, light 12 h:12 h dark photoperiod). Once infected with P. vivax, blood-fed mosquitoes were securely transported back to Bangkok and maintained in a separate insectary (25 ± 1 °C and 70 ± 10% relative humidity, light 12 h:12 h dark photoperiod).
# Unfed mosquitoes were removed from the feeding containers after each blood meal. Mosquitoes from the DPI 0 and DPI −3 feeding schedules were dissected 7 days post parasite ingestion to enumerate oocysts. Midguts were dissected with minuten pins into saline on a microscope slide and stained with 0.4% mercurochrome and viewed at 40× magnification with a compound microscope to determine oocyst prevalence and intensity. Approximately 25 mosquitoes were dissected from each control and treatment group at each dissection time point. Dissectors were blinded to treatment groups. Due to lack of initial mosquito blood feeding and mosquitoes lost to experimental mortality and oocyst dissections at day 7 post parasite feeding, not enough mosquitoes remained at day 14 post parasite feeding to determine sporozoite prevalence for the DPI −3 and 0 experiments. Mosquitoes from the DPI 6 and 9 experiments were dissected 14 days post parasite ingestion to determine sporozoite prevalence. […]
# A non-linear mixed effects model with probit analysis was used to calculate LC50, LC25 and LC5 values with Statistical Analysis Software (SAS Institute Inc, Cary, NC, USA) as described previously. Hazard ratios for mosquito mortality at day 7 post blood meal were calculated using Poisson regression analysis with STATA version 12.1 (StataCorp LLC, College Station, TX, USA). […] To determine if P. vivax infection altered mosquito survivorship post-ivermectin ingestion survival data were analysed by the Mantel–Cox method. The Fishers Exact, Mann–Whitney U, and survival analysis data were analysed with Prism 7 (GraphPad Software Inc, San Diego, CA, USA).
# [1] = cited from earlier work
# P. falciparum = settings: cited from earlier work
# Anopheles dirus = assay: Ivermectin lethal concentration / survivorship, membrane blood feeding; assay type: in vivo; settings: An. dirus
# Protocol: (§1) Powdered formulation of ivermectin compound was obtained from Sigma-Aldrich (St. Louis, USA). […] Control blood meals consisted of previously frozen DMSO diluted in PBS to match the ratio of DMSO and PBS fed to mosquitoes in the ivermectin-containing blood meals.
# (§2) After blood feeding via a membrane feeder, unfed mosquitoes were removed and discarded. Blood-fed mosquitoes were held in 3.5-l plastic containers with access to 10% sucrose and kept in an incubator at 25 ± 1 °C and 70 ± 10% relative humidity, on a 12 h light:12 h dark photoperiod. Mosquito survivorship was monitored for 7 days, every 24 h dead mosquitoes were removed and recorded, and on day 7 all remaining mosquitoes were frozen and counted as alive.
# (§3) A non-linear mixed effects model with probit analysis was used to calculate LC50, LC25 and LC5 values with Statistical Analysis Software (SAS Institute Inc, Cary, NC, USA) as described previously. Hazard ratios for mosquito mortality at day 7 post blood meal were calculated using Poisson regression analysis with STATA version 12.1 (StataCorp LLC, College Station, TX, USA). Oocyst and sporozoite prevalence (i.e. proportion of infected mosquitoes) was compared by Fishers Exact test. Oocyst intensity (i.e. number of oocysts per infected mosquito) was compared by the Mann–Whitney U test. To determine if P. vivax infection altered mosquito survivorship post-ivermectin ingestion survival data were analysed by the Mantel–Cox method. The Fishers Exact, Mann–Whitney U, and survival analysis data were analysed with Prism 7 (GraphPad Software Inc, San Diego, CA, USA).
# Anopheles minimus = assay: as above; assay type: in vivo; settings: An. minimus
# Protocol: as §1, §2, §3
# Anopheles sawadwongporni = assay: as above; assay type: in vivo; settings: An. sawadwongporni
# Protocol: as §1, §2, §3
# Anopheles campestris = assay: as above; assay type: in vivo; settings: An. campestris
# Protocol: as §1, §2, §3
substance,measurement,setting,value
ivermectin,P. vivax oocyst prevalence reduced by,Plasmodium vivax; ivermectin LC5 (6.7 ng/ml) co-ingested at DPI 0,31.3%
same,P. vivax mean oocyst intensity reduced by,Plasmodium vivax; ivermectin LC5 at DPI 0,35.3%
same,P. vivax oocyst prevalence reduced by,Plasmodium vivax; ivermectin LC25 (11.3 ng/ml) co-ingested at DPI 0,58.8%
same,P. vivax mean oocyst intensity reduced by,"Plasmodium vivax; ivermectin LC25 at DPI 0, P = 0.1018",28.5%
same,Safety of repeated administration,"[1]; 400 µg/kg every two weeks for 12 weeks, adults, Sri Lanka and Brazil",safe
same,Safety and tolerability,"[1]; doses up to 2000 µg/kg, healthy volunteers",safe and well tolerated
same,Effect on P. falciparum oocyst intensity in An. gambiae,P. falciparum; LC25 or LC5 at DPI 0,no effect
same,Effect on oocyst prevalence of P. falciparum in An. gambiae,P. falciparum; ivermectin LC5 at DPI −3,reduced oocyst prevalence
same,Sporontocidal effect for P. falciparum in An. gambiae,P. falciparum; ivermectin LC25 at DPI 6 and 9,significant sporontocidal effect
same,Effect on P. falciparum prevalence in An. gambiae,P. falciparum; ivermectin LC25 ingested concomitantly (DPI 0),significantly reduced
same,LC5,Anopheles dirus; 7 days post blood meal,22.1 ng/mL
same,LC25,Anopheles dirus; 7 days post blood meal,0.0381 µg/mL
same,LC50,Anopheles dirus; 7 days post blood meal,0.0556 µg/mL
same,"IRR (Incidence Rate Ratio of mortality at day 7, treatment group divided by control group)",Anopheles dirus; ivermectin imbibed 20 ng/ml,2.8
same,"IRR (Incidence Rate Ratio of mortality at day 7, treatment group divided by control group)",Anopheles dirus; ivermectin imbibed 25 ng/ml,8.2
same,"IRR (Incidence Rate Ratio of mortality at day 7, treatment group divided by control group)",Anopheles dirus; ivermectin imbibed 30 ng/ml,4.7
same,"IRR (Incidence Rate Ratio of mortality at day 7, treatment group divided by control group)",Anopheles dirus; ivermectin imbibed 35 ng/ml,24.4
same,"IRR (Incidence Rate Ratio of mortality at day 7, treatment group divided by control group)",Anopheles dirus; ivermectin imbibed 40 ng/ml,19.1
same,"IRR (Incidence Rate Ratio of mortality at day 7, treatment group divided by control group)",Anopheles dirus; ivermectin imbibed 45 ng/ml,21.4
same,"IRR (Incidence Rate Ratio of mortality at day 7, treatment group divided by control group)",Anopheles dirus; ivermectin imbibed 50 ng/ml,32.3
same,"IRR (Incidence Rate Ratio of mortality at day 7, treatment group divided by control group)",Anopheles dirus; ivermectin imbibed 55 ng/ml,29.6
same,"IRR (Incidence Rate Ratio of mortality at day 7, treatment group divided by control group)",Anopheles dirus; ivermectin imbibed 60 ng/ml,36.1
same,"IRR (Incidence Rate Ratio of mortality at day 7, treatment group divided by control group)",Anopheles dirus; ivermectin imbibed 65 ng/ml,44.5
same,"IRR (Incidence Rate Ratio of mortality at day 7, treatment group divided by control group)",Anopheles dirus; ivermectin imbibed 70 ng/ml,42.5
same,"IRR (Incidence Rate Ratio of mortality at day 7, treatment group divided by control group)",Anopheles dirus; ivermectin imbibed 80 ng/ml,46.8
same,"IRR (Incidence Rate Ratio of mortality at day 7, treatment group divided by control group)",Anopheles dirus; ivermectin imbibed 85 ng/ml,55.7
same,"IRR (Incidence Rate Ratio of mortality at day 7, treatment group divided by control group)",Anopheles dirus; ivermectin imbibed 95 ng/ml,58.1
same,"IRR (Incidence Rate Ratio of mortality at day 7, treatment group divided by control group)",Anopheles dirus; ivermectin imbibed 100 ng/ml,64.3
same,LC5,Anopheles minimus; 7 days post blood meal,6.7 ng/mL
same,LC25,Anopheles minimus; 7 days post blood meal,0.0113 µg/mL
same,LC50,Anopheles minimus; 7 days post blood meal,0.0163 µg/mL
same,"IRR (Incidence Rate Ratio of mortality at day 7, treatment group divided by control group)",Anopheles minimus; ivermectin imbibed 1 ng/ml,2.7
same,"IRR (Incidence Rate Ratio of mortality at day 7, treatment group divided by control group)",Anopheles minimus; ivermectin imbibed 2 ng/ml,0.5
same,"IRR (Incidence Rate Ratio of mortality at day 7, treatment group divided by control group)",Anopheles minimus; ivermectin imbibed 3 ng/ml,1.8
same,"IRR (Incidence Rate Ratio of mortality at day 7, treatment group divided by control group)",Anopheles minimus; ivermectin imbibed 4 ng/ml,2.9
same,"IRR (Incidence Rate Ratio of mortality at day 7, treatment group divided by control group)",Anopheles minimus; ivermectin imbibed 5 ng/ml,3.6
same,"IRR (Incidence Rate Ratio of mortality at day 7, treatment group divided by control group)",Anopheles minimus; ivermectin imbibed 6 ng/ml,1.3
same,"IRR (Incidence Rate Ratio of mortality at day 7, treatment group divided by control group)",Anopheles minimus; ivermectin imbibed 8 ng/ml,2.8
same,"IRR (Incidence Rate Ratio of mortality at day 7, treatment group divided by control group)",Anopheles minimus; ivermectin imbibed 10 ng/ml,3.8
same,"IRR (Incidence Rate Ratio of mortality at day 7, treatment group divided by control group)",Anopheles minimus; ivermectin imbibed 12 ng/ml,4.6
same,"IRR (Incidence Rate Ratio of mortality at day 7, treatment group divided by control group)",Anopheles minimus; ivermectin imbibed 15 ng/ml,5.8
same,"IRR (Incidence Rate Ratio of mortality at day 7, treatment group divided by control group)",Anopheles minimus; ivermectin imbibed 18 ng/ml,7.0
same,"IRR (Incidence Rate Ratio of mortality at day 7, treatment group divided by control group)",Anopheles minimus; ivermectin imbibed 20 ng/ml,9.5
same,"IRR (Incidence Rate Ratio of mortality at day 7, treatment group divided by control group)",Anopheles minimus; ivermectin imbibed 25 ng/ml,9.0
same,"IRR (Incidence Rate Ratio of mortality at day 7, treatment group divided by control group)",Anopheles minimus; ivermectin imbibed 28 ng/ml,10.5
same,"IRR (Incidence Rate Ratio of mortality at day 7, treatment group divided by control group)",Anopheles minimus; ivermectin imbibed 30 ng/ml,11.5
same,LC5,Anopheles sawadwongporni; 7 days post blood meal,16.1 ng/mL
same,LC25,Anopheles sawadwongporni; 7 days post blood meal,0.0218 µg/mL
same,LC50,Anopheles sawadwongporni; 7 days post blood meal,0.0269 µg/mL
same,"IRR (Incidence Rate Ratio of mortality at day 7, treatment group divided by control group)",Anopheles sawadwongporni; ivermectin imbibed 4 ng/ml,0.3
same,"IRR (Incidence Rate Ratio of mortality at day 7, treatment group divided by control group)",Anopheles sawadwongporni; ivermectin imbibed 5 ng/ml,1.3
same,"IRR (Incidence Rate Ratio of mortality at day 7, treatment group divided by control group)",Anopheles sawadwongporni; ivermectin imbibed 6 ng/ml,0.3
same,"IRR (Incidence Rate Ratio of mortality at day 7, treatment group divided by control group)",Anopheles sawadwongporni; ivermectin imbibed 8 ng/ml,0.6
same,"IRR (Incidence Rate Ratio of mortality at day 7, treatment group divided by control group)",Anopheles sawadwongporni; ivermectin imbibed 10 ng/ml,1.1
same,"IRR (Incidence Rate Ratio of mortality at day 7, treatment group divided by control group)",Anopheles sawadwongporni; ivermectin imbibed 12 ng/ml,0.9
same,"IRR (Incidence Rate Ratio of mortality at day 7, treatment group divided by control group)",Anopheles sawadwongporni; ivermectin imbibed 15 ng/ml,2.1
same,"IRR (Incidence Rate Ratio of mortality at day 7, treatment group divided by control group)",Anopheles sawadwongporni; ivermectin imbibed 18 ng/ml,2.1
same,"IRR (Incidence Rate Ratio of mortality at day 7, treatment group divided by control group)",Anopheles sawadwongporni; ivermectin imbibed 20 ng/ml,2.7
same,"IRR (Incidence Rate Ratio of mortality at day 7, treatment group divided by control group)",Anopheles sawadwongporni; ivermectin imbibed 22 ng/ml,2.3
same,"IRR (Incidence Rate Ratio of mortality at day 7, treatment group divided by control group)",Anopheles sawadwongporni; ivermectin imbibed 25 ng/ml,5.3
same,"IRR (Incidence Rate Ratio of mortality at day 7, treatment group divided by control group)",Anopheles sawadwongporni; ivermectin imbibed 28 ng/ml,5.2
same,"IRR (Incidence Rate Ratio of mortality at day 7, treatment group divided by control group)",Anopheles sawadwongporni; ivermectin imbibed 30 ng/ml,8.0
same,"IRR (Incidence Rate Ratio of mortality at day 7, treatment group divided by control group)",Anopheles sawadwongporni; ivermectin imbibed 35 ng/ml,8.4
same,"IRR (Incidence Rate Ratio of mortality at day 7, treatment group divided by control group)",Anopheles sawadwongporni; ivermectin imbibed 40 ng/ml,9.4
same,LC5,Anopheles campestris; 7 days post blood meal,11.7 ng/mL
same,LC25,Anopheles campestris; 7 days post blood meal,0.0189 µg/mL
same,LC50,Anopheles campestris; 7 days post blood meal,0.0264 µg/mL
same,"IRR (Incidence Rate Ratio of mortality at day 7, treatment group divided by control group)",Anopheles campestris; ivermectin imbibed 3 ng/ml,0.8
same,"IRR (Incidence Rate Ratio of mortality at day 7, treatment group divided by control group)",Anopheles campestris; ivermectin imbibed 4 ng/ml,1.7
same,"IRR (Incidence Rate Ratio of mortality at day 7, treatment group divided by control group)",Anopheles campestris; ivermectin imbibed 5 ng/ml,1.4
same,"IRR (Incidence Rate Ratio of mortality at day 7, treatment group divided by control group)",Anopheles campestris; ivermectin imbibed 6 ng/ml,1.0
same,"IRR (Incidence Rate Ratio of mortality at day 7, treatment group divided by control group)",Anopheles campestris; ivermectin imbibed 8 ng/ml,1.2
same,"IRR (Incidence Rate Ratio of mortality at day 7, treatment group divided by control group)",Anopheles campestris; ivermectin imbibed 10 ng/ml,1.0
same,"IRR (Incidence Rate Ratio of mortality at day 7, treatment group divided by control group)",Anopheles campestris; ivermectin imbibed 15 ng/ml,1.8
same,"IRR (Incidence Rate Ratio of mortality at day 7, treatment group divided by control group)",Anopheles campestris; ivermectin imbibed 18 ng/ml,2.7
same,"IRR (Incidence Rate Ratio of mortality at day 7, treatment group divided by control group)",Anopheles campestris; ivermectin imbibed 20 ng/ml,2.5
same,"IRR (Incidence Rate Ratio of mortality at day 7, treatment group divided by control group)",Anopheles campestris; ivermectin imbibed 22 ng/ml,3.4
same,"IRR (Incidence Rate Ratio of mortality at day 7, treatment group divided by control group)",Anopheles campestris; ivermectin imbibed 25 ng/ml,3.4
same,"IRR (Incidence Rate Ratio of mortality at day 7, treatment group divided by control group)",Anopheles campestris; ivermectin imbibed 30 ng/ml,2.5
same,"IRR (Incidence Rate Ratio of mortality at day 7, treatment group divided by control group)",Anopheles campestris; ivermectin imbibed 35 ng/ml,2.5
same,"IRR (Incidence Rate Ratio of mortality at day 7, treatment group divided by control group)",Anopheles campestris; ivermectin imbibed 45 ng/ml,4.9
same,"IRR (Incidence Rate Ratio of mortality at day 7, treatment group divided by control group)",Anopheles campestris; ivermectin imbibed 50 ng/ml,5.3
